Measured values: ChEMBL document CHEMBL1201862, “PubChem BioAssay data set” (2004)
Where a name gives a salt, the structure may show the parent alone.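 Five compound concentrations were applied to cells in 96-well plates for 48 hours; endpoints were derived by simple linear interpolation of the resulting dose-response curve. The concentration for 50% growth inhibition is given as GI50.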 The source made the active and inactive calls. Cut-off read from the data, not from the text of the source: active = GI50 up to about 1.1 µM and inactive = higher.

Key:
Experiment in all cases: NCI-60 cell line screen, 48 h
A549 = tested on: A549
DU-145 = tested on: DU-145
HCT-15 = tested on: HCT-15
HL-60 = tested on: HL-60
LOX IMVI = tested on: LOX IMVI
MDA-N = tested on: MDA-N
MOLT-4 = tested on: MOLT-4
OVCAR-4 = tested on: OVCAR-4
OVCAR-8 = tested on: OVCAR-8
PC-3 = tested on: PC-3
SF-268 = tested on: SF-268
SF-539 = tested on: SF-539
SN12C = tested on: SN12C
SW-620 = tested on: SW-620
T47D = tested on: T47D
TK-10 = tested on: TK-10
UACC-257 = tested on: UACC-257
BT-549 = tested on: BT-549
HOP-92 = tested on: HOP-92
RPMI-8226 = tested on: RPMI-8226

Structure (SMILES)	GI50 (A549)	GI50 (DU-145)	GI50 (HCT-15) [µM]	GI50 (HL-60)	GI50 (LOX IMVI)	GI50 (MDA-N)	GI50 (MOLT-4)	GI50 (OVCAR-4)	GI50 (OVCAR-8)	GI50 (PC-3)	GI50 (SF-268)	GI50 (SF-539)	GI50 (SN12C)	GI50 (SW-620)	GI50 (T47D)	GI50 (TK-10)	GI50 (UACC-257)	GI50 (BT-549)	GI50 (HOP-92)	GI50 (RPMI-8226)
O=C(O)[C@@H]1CCS(=O)(=O)N1	> 100 µM (inactive)	> 100 µM (inactive)	> 100	> 100 µM (inactive)	> 100 µM (inactive)	> 100 µM (inactive)	> 100 µM (inactive)	> 100 µM (inactive)	> 100 µM (inactive)	> 100 µM (inactive)	> 100 µM (inactive)	> 100 µM (inactive)	> 100 µM (inactive)	> 100 µM (inactive)	> 100 µM (inactive)	> 100 µM (inactive)	> 100 µM (inactive)	–	–	–
N#CC(=C1CCN(CCCC(=O)c2ccc(F)cc2)CC1)c1ccccc1	> 100 µM (inactive)	> 100 µM (inactive)	> 100	> 100 µM (inactive)	> 100 µM (inactive)	–	> 100 µM (inactive)	> 100 µM (inactive)	> 100 µM (inactive)	> 100 µM (inactive)	> 100 µM (inactive)	> 100 µM (inactive)	> 100 µM (inactive)	> 100 µM (inactive)	> 100 µM (inactive)	> 100 µM (inactive)	> 100 µM (inactive)	> 100 µM (inactive)	> 100 µM (inactive)	> 100 µM (inactive)
CCCCNC(=O)C1=C(C)NC(C)=C(C(=O)NCCCC)C1	> 100 µM (inactive)	> 100 µM (inactive)	> 100	71.1 µM (inactive)	> 100 µM (inactive)	> 100 µM (inactive)	> 100 µM (inactive)	> 100 µM (inactive)	> 100 µM (inactive)	–	> 100 µM (inactive)	> 100 µM (inactive)	> 100 µM (inactive)	> 100 µM (inactive)	> 100 µM (inactive)	> 100 µM (inactive)	> 100 µM (inactive)	> 100 µM (inactive)	> 100 µM (inactive)	–
CCOC(=O)Nc1sc2c(c1C#N)CCCC2	–	> 100 µM (inactive)	79.4	45.3 µM (inactive)	63.8 µM (inactive)	50.4 µM (inactive)	62.5 µM (inactive)	> 100 µM (inactive)	–	66.4 µM (inactive)	> 100 µM (inactive)	–	> 100 µM (inactive)	> 100 µM (inactive)	–	> 100 µM (inactive)	> 100 µM (inactive)	49 µM (inactive)	47.3 µM (inactive)	33 µM (inactive)
O=C1C(=Cc2c(O)cc(O)cc2O)C(=O)c2ccccc21	> 100 µM (inactive)	19.1 µM (inactive)	> 46.8	16.8 µM (inactive)	15.4 µM (inactive)	–	39.8 µM (inactive)	> 48.2 µM (inactive)	> 41.7 µM (inactive)	–	> 45.4 µM (inactive)	> 42.7 µM (inactive)	19.5 µM (inactive)	> 42.1 µM (inactive)	–	> 46.6 µM (inactive)	> 42.5 µM (inactive)	–	> 38.5 µM (inactive)	29 µM (inactive)
COc1cc(O)c2c(c1)OCC1(Cc3cc(OC)c(OC)cc31)C2=O (stereo unspecified)	19.5 µM (inactive)	> 100 µM (inactive)	> 100	> 100 µM (inactive)	89.3 µM (inactive)	49.9 µM (inactive)	47.3 µM (inactive)	40 µM (inactive)	> 100 µM (inactive)	> 100 µM (inactive)	> 100 µM (inactive)	> 100 µM (inactive)	> 100 µM (inactive)	> 100 µM (inactive)	11.9 µM (inactive)	> 100 µM (inactive)	43.1 µM (inactive)	–	23.3 µM (inactive)	37.9 µM (inactive)
Cc1ccc(S(=O)(=O)OCC/C(=C\[Si](C)(C)C)c2ccccc2)cc1	> 100 µM (inactive)	–	> 100	91 µM (inactive)	> 100 µM (inactive)	–	> 100 µM (inactive)	> 100 µM (inactive)	> 100 µM (inactive)	–	> 100 µM (inactive)	> 100 µM (inactive)	> 100 µM (inactive)	> 100 µM (inactive)	–	> 100 µM (inactive)	> 100 µM (inactive)	–	> 100 µM (inactive)	> 100 µM (inactive)
O=C(NC1CC1)c1c(O)[nH]c(=S)[nH]c1=O	> 100 µM (inactive)	–	> 100	> 100 µM (inactive)	> 100 µM (inactive)	–	> 100 µM (inactive)	> 100 µM (inactive)	> 100 µM (inactive)	–	> 100 µM (inactive)	> 100 µM (inactive)	> 100 µM (inactive)	> 100 µM (inactive)	–	> 100 µM (inactive)	> 100 µM (inactive)	–	> 100 µM (inactive)	> 100 µM (inactive)
CN(CCCCCl)P(=O)(OCc1ccc([N+](=O)[O-])o1)OCC1OC(n2ccc(N)nc2=O)C(O)C1O (stereo unspecified)	0.303 µM (active)	6.93 µM (inactive)	41.4	4.15 µM (inactive)	7.24 µM (inactive)	1.82 µM (inactive)	0.305 µM (active)	1.05 µM (active)	2.82 µM (inactive)	2.39 µM (inactive)	7.6 µM (inactive)	10.1 µM (inactive)	3.52 µM (inactive)	2.45 µM (inactive)	1.26 µM (inactive)	37.7 µM (inactive)	2.21 µM (inactive)	–	–	1.57 µM (inactive)
O=C(O)C12C3CCC(O3)C1(C(=O)O)C1CCC2O1 (stereo unspecified)	> 100 µM (inactive)	> 100 µM (inactive)	> 100	> 100 µM (inactive)	> 100 µM (inactive)	–	> 100 µM (inactive)	–	> 100 µM (inactive)	> 100 µM (inactive)	> 100 µM (inactive)	> 100 µM (inactive)	> 100 µM (inactive)	> 100 µM (inactive)	> 100 µM (inactive)	> 100 µM (inactive)	> 100 µM (inactive)	> 100 µM (inactive)	–	> 100 µM (inactive)
COCOC1C=CCCCC2=CC(C)=C(CC1)O2 (stereo unspecified)	> 100 µM (inactive)	> 100 µM (inactive)	> 100	–	> 100 µM (inactive)	> 100 µM (inactive)	42.3 µM (inactive)	> 100 µM (inactive)	> 100 µM (inactive)	> 100 µM (inactive)	> 100 µM (inactive)	> 100 µM (inactive)	> 100 µM (inactive)	> 100 µM (inactive)	–	> 100 µM (inactive)	> 100 µM (inactive)	> 100 µM (inactive)	> 100 µM (inactive)	> 100 µM (inactive)
CCNc1ncnc2c1nnn2CC	> 100 µM (inactive)	> 100 µM (inactive)	> 100	> 100 µM (inactive)	> 100 µM (inactive)	> 100 µM (inactive)	> 100 µM (inactive)	> 100 µM (inactive)	97.5 µM (inactive)	> 100 µM (inactive)	–	> 100 µM (inactive)	> 100 µM (inactive)	> 100 µM (inactive)	> 100 µM (inactive)	> 100 µM (inactive)	> 100 µM (inactive)	–	72.1 µM (inactive)	> 100 µM (inactive)
NCCCCNCCCN [SPERMIDINE TRIHYDROCHLORIDE]	> 100 µM (inactive)	> 100 µM (inactive)	> 100	> 100 µM (inactive)	> 100 µM (inactive)	–	51.3 µM (inactive)	16.7 µM (inactive)	> 100 µM (inactive)	> 100 µM (inactive)	> 100 µM (inactive)	> 100 µM (inactive)	–	> 100 µM (inactive)	> 100 µM (inactive)	> 100 µM (inactive)	> 100 µM (inactive)	> 100 µM (inactive)	> 100 µM (inactive)	–
OCC1OC(c2ccccc2)CC1O (stereo unspecified)	> 100 µM (inactive)	> 100 µM (inactive)	> 100	> 100 µM (inactive)	> 100 µM (inactive)	–	> 100 µM (inactive)	> 100 µM (inactive)	> 100 µM (inactive)	–	–	> 100 µM (inactive)	> 100 µM (inactive)	> 100 µM (inactive)	–	> 100 µM (inactive)	> 100 µM (inactive)	–	–	–
COc1ccc(NC(=O)CSc2nc(C)nc3c2sc(=S)n3-c2ccccc2)cc1	> 10 µM (inactive)	> 10 µM (inactive)	> 10	> 10 µM (inactive)	> 10 µM (inactive)	> 10 µM (inactive)	> 10 µM (inactive)	3.18 µM (inactive)	> 10 µM (inactive)	> 10 µM (inactive)	> 10 µM (inactive)	2.43 µM (inactive)	> 10 µM (inactive)	> 10 µM (inactive)	> 10 µM (inactive)	> 10 µM (inactive)	> 10 µM (inactive)	–	2.11 µM (inactive)	> 10 µM (inactive)
Cc1cc2[nH]c3c(C#N)c(-c4ccccc4)c(/N=N/c4ccc(F)cc4)c(=O)n3c2cc1C	68.1 µM (inactive)	–	36.6	–	> 100 µM (inactive)	> 100 µM (inactive)	–	91 µM (inactive)	–	> 100 µM (inactive)	35.9 µM (inactive)	> 100 µM (inactive)	> 100 µM (inactive)	> 100 µM (inactive)	4.22 µM (inactive)	> 100 µM (inactive)	> 100 µM (inactive)	> 100 µM (inactive)	–	> 100 µM (inactive)
CCCCCCCCCCCCOCC(COP(=O)(O)OCCN=[N+]=[N-])OC(=O)CCCCCCCCCCC (stereo unspecified)	> 100 µM (inactive)	> 100 µM (inactive)	> 100	–	–	> 100 µM (inactive)	> 100 µM (inactive)	52.2 µM (inactive)	> 100 µM (inactive)	> 100 µM (inactive)	> 100 µM (inactive)	> 100 µM (inactive)	> 100 µM (inactive)	> 100 µM (inactive)	> 100 µM (inactive)	> 100 µM (inactive)	–	–	> 100 µM (inactive)	> 100 µM (inactive)
